Test results taken from ChEMBL document CHEMBL5724806, “Unraveling interindividual differences and functional consequences of gut microbial metabolism of immunosuppressants” (2024).

Experiments:
Type in all cases: ADME
[1] = (§1) The drug is tested on Bifidobacterium longum strain: DSM20088 for biotransformation under anaerobic condition. The drug concentrations were measured over 6 timepoints collected between 0 and 12 hours of incubation by liquid-chromatography-coupled mass spectrometry (LC–MS); set-up: dose 5 uM, timepoint 0, 1.5, 3, 6, 9, 12 hours; conditions: 5 µM
[2] = The drug is tested on Collinsella aerofaciens strain: DSM3979 for biotransformation under anaerobic condition. The drug concentrations were measured over 6 timepoints collected between 0 and 12 hours of incubation by liquid-chromatography-coupled mass spectrometry (LC–MS); set-up: dose 5 uM, timepoint 0, 1.5, 3, 6, 9, 12 hours; conditions: 5 µM
[3] = The drug is tested on Bacteroides caccae strain: DSM19024 for biotransformation under anaerobic condition. The drug concentrations were measured over 6 timepoints collected between 0 and 12 hours of incubation by liquid-chromatography-coupled mass spectrometry (LC–MS); set-up: dose 5 uM, timepoint 0, 1.5, 3, 6, 9, 12 hours; conditions: 5 µM
[4] = The drug is tested on Bacteroides stercoris strain: HM 1036 for biotransformation under anaerobic condition. The drug concentrations were measured over 6 timepoints collected between 0 and 12 hours of incubation by liquid-chromatography-coupled mass spectrometry (LC–MS); set-up: dose 5 uM, timepoint 0, 1.5, 3, 6, 9, 12 hours; conditions: 5 µM
[5] = The drug is tested on Parabacteroides distasonis strain: DSM20701 for biotransformation under anaerobic condition. The drug concentrations were measured over 6 timepoints collected between 0 and 12 hours of incubation by liquid-chromatography-coupled mass spectrometry (LC–MS); set-up: dose 5 uM, timepoint 0, 1.5, 3, 6, 9, 12 hours; conditions: 5 µM
[6] = The drug is tested on Coprococcus comes strain: ATCC27758 for biotransformation under anaerobic condition. The drug concentrations were measured over 6 timepoints collected between 0 and 12 hours of incubation by liquid-chromatography-coupled mass spectrometry (LC–MS); set-up: dose 5 uM, timepoint 0, 1.5, 3, 6, 9, 12 hours; conditions: 5 µM
[7] = The drug is tested on Eubacterium eligens strain: DSM3376 for biotransformation under anaerobic condition. The drug concentrations were measured over 6 timepoints collected between 0 and 12 hours of incubation by liquid-chromatography-coupled mass spectrometry (LC–MS); set-up: dose 5 uM, timepoint 0, 1.5, 3, 6, 9, 12 hours; conditions: lachnospira eligens, 5 µM
[8] = The drug is tested on Eubacterium hallii strain: DSM3353 for biotransformation under anaerobic condition. The drug concentrations were measured over 6 timepoints collected between 0 and 12 hours of incubation by liquid-chromatography-coupled mass spectrometry (LC–MS); set-up: dose 5 uM, timepoint 0, 1.5, 3, 6, 9, 12 hours; conditions: anaerobutyricum hallii, 5 µM
[9] = The drug is tested on Lactobacillus gasseri strain: DSM20243 for biotransformation under anaerobic condition. The drug concentrations were measured over 6 timepoints collected between 0 and 12 hours of incubation by liquid-chromatography-coupled mass spectrometry (LC–MS); set-up: dose 5 uM, timepoint 0, 1.5, 3, 6, 9, 12 hours; conditions: 5 µM
[10] = The drug is tested on Lactobacillus paracasei strain: ATCC27092 for biotransformation under anaerobic condition. The drug concentrations were measured over 6 timepoints collected between 0 and 12 hours of incubation by liquid-chromatography-coupled mass spectrometry (LC–MS); set-up: dose 5 uM, timepoint 0, 1.5, 3, 6, 9, 12 hours; conditions: lacticaseibacillus paracasei, 5 µM
[11] = The drug is tested on Ruminococcus gnavus strain: ATCC29149 for biotransformation under anaerobic condition. The drug concentrations were measured over 6 timepoints collected between 0 and 12 hours of incubation by liquid-chromatography-coupled mass spectrometry (LC–MS); set-up: dose 5 uM, timepoint 0, 1.5, 3, 6, 9, 12 hours; conditions: mediterraneibacter gnavus, 5 µM
[12] = The drug is tested on Streptococcus mitis strain: DSM12643 for biotransformation under anaerobic condition. The drug concentrations were measured over 6 timepoints collected between 0 and 12 hours of incubation by liquid-chromatography-coupled mass spectrometry (LC–MS); set-up: dose 5 uM, timepoint 0, 1.5, 3, 6, 9, 12 hours; conditions: 5 µM
[13] = The drug is tested on Streptococcus sanguinis strain: DSM20567 for biotransformation under anaerobic condition. The drug concentrations were measured over 6 timepoints collected between 0 and 12 hours of incubation by liquid-chromatography-coupled mass spectrometry (LC–MS); set-up: dose 5 uM, timepoint 0, 1.5, 3, 6, 9, 12 hours; conditions: 5 µM
[14] = (§2) The drug is tested on Gemella morbillorum strain: DSM20572 for biotransformation under microaerobic condition. The drug concentrations were measured over 6 timepoints collected between 0 and 12 hours of incubation by liquid-chromatography-coupled mass spectrometry (LC–MS); set-up: dose 5 uM, timepoint 0, 1.5, 3, 6, 9, 12 hours; conditions: 5 µM
[15] = The drug is tested on Lactobacillus gasseri strain: DSM20243 for biotransformation under microaerobic condition. The drug concentrations were measured over 6 timepoints collected between 0 and 12 hours of incubation by liquid-chromatography-coupled mass spectrometry (LC–MS); set-up: dose 5 uM, timepoint 0, 1.5, 3, 6, 9, 12 hours; conditions: 5 µM
[16] = The drug is tested on Lactobacillus paracasei strain: ATCC27092 for biotransformation under microaerobic condition. The drug concentrations were measured over 6 timepoints collected between 0 and 12 hours of incubation by liquid-chromatography-coupled mass spectrometry (LC–MS); set-up: dose 5 uM, timepoint 0, 1.5, 3, 6, 9, 12 hours; conditions: lacticaseibacillus paracasei, 5 µM
[17] = The drug is tested on Lactobacillus reuteri strain: DSM20016 for biotransformation under microaerobic condition. The drug concentrations were measured over 6 timepoints collected between 0 and 12 hours of incubation by liquid-chromatography-coupled mass spectrometry (LC–MS); set-up: dose 5 uM, timepoint 0, 1.5, 3, 6, 9, 12 hours; conditions: limosilactobacillus reuteri, 5 µM
[18] = The drug is tested on Streptococcus anginosus strain: DSM20563 for biotransformation under microaerobic condition. The drug concentrations were measured over 6 timepoints collected between 0 and 12 hours of incubation by liquid-chromatography-coupled mass spectrometry (LC–MS); set-up: dose 5 uM, timepoint 0, 1.5, 3, 6, 9, 12 hours; conditions: 5 µM
[19] = The drug is tested on Streptococcus salivarius strain: DSM20560 for biotransformation under microaerobic condition. The drug concentrations were measured over 6 timepoints collected between 0 and 12 hours of incubation by liquid-chromatography-coupled mass spectrometry (LC–MS); set-up: dose 5 uM, timepoint 0, 1.5, 3, 6, 9, 12 hours; conditions: 5 µM
[20] = as §1, with “the gut metagenome community of A-02 with ENA study accession number: PRJEB31790” for “Bifidobacterium longum strain: DSM20088”, “7” for “6”; set-up: dose 5 uM, timepoint 0, 0.75, 1.5, 3, 6, 9, 12 hours; conditions: 5 µM
[21] = as §1, with “the gut metagenome community of A-03 with ENA study accession number: PRJEB31790” for “Bifidobacterium longum strain: DSM20088”, “7” for “6”; set-up: dose 5 uM, timepoint 0, 0.75, 1.5, 3, 6, 9, 12 hours; conditions: 5 µM
[22] = as §1, with “the gut metagenome community of A-07 with ENA study accession number: PRJEB31790” for “Bifidobacterium longum strain: DSM20088”, “7” for “6”; set-up: dose 5 uM, timepoint 0, 0.75, 1.5, 3, 6, 9, 12 hours; conditions: 5 µM
[23] = as §1, with “the gut metagenome community of A-09 with ENA study accession number: PRJEB31790” for “Bifidobacterium longum strain: DSM20088”, “7” for “6”; set-up: dose 5 uM, timepoint 0, 0.75, 1.5, 3, 6, 9, 12 hours; conditions: 5 µM
[24] = as §1, with “the gut metagenome community of A-10 with ENA study accession number: PRJEB31790” for “Bifidobacterium longum strain: DSM20088”, “7” for “6”; set-up: dose 5 uM, timepoint 0, 0.75, 1.5, 3, 6, 9, 12 hours; conditions: 5 µM
[25] = as §1, with “the gut metagenome community of T-01 with ENA study accession number: PRJEB31790” for “Bifidobacterium longum strain: DSM20088”, “7” for “6”; set-up: dose 5 uM, timepoint 0, 0.75, 1.5, 3, 6, 9, 12 hours; conditions: 5 µM
[26] = as §2, with “the gut metagenome community of A-05 with ENA study accession number: PRJEB31790” for “Gemella morbillorum strain: DSM20572”, “7” for “6”; set-up: dose 5 uM, timepoint 0, 0.75, 1.5, 3, 6, 9, 12 hours; conditions: 5 µM
[27] = as §2, with “the gut metagenome community of A-08 with ENA study accession number: PRJEB31790” for “Gemella morbillorum strain: DSM20572”, “7” for “6”; set-up: dose 5 uM, timepoint 0, 0.75, 1.5, 3, 6, 9, 12 hours; conditions: 5 µM
[28] = as §2, with “the gut metagenome community of P-01 with ENA study accession number: PRJEB31790” for “Gemella morbillorum strain: DSM20572”, “7” for “6”; set-up: dose 5 uM, timepoint 0, 0.75, 1.5, 3, 6, 9, 12 hours; conditions: 5 µM
[29] = as §2, with “the gut metagenome community of P-04 with ENA study accession number: PRJEB31790” for “Gemella morbillorum strain: DSM20572”, “7” for “6”; set-up: dose 5 uM, timepoint 0, 0.75, 1.5, 3, 6, 9, 12 hours; conditions: 5 µM
[30] = as §2, with “the gut metagenome community of T-03 with ENA study accession number: PRJEB31790” for “Gemella morbillorum strain: DSM20572”, “7” for “6”; set-up: dose 5 uM, timepoint 0, 0.75, 1.5, 3, 6, 9, 12 hours; conditions: 5 µM

Bacterial Biotransformation [1] | Bacterial Biotransformation [2] | Bacterial Biotransformation [3] | Bacterial Biotransformation [4] | Bacterial Biotransformation [5] | Bacterial Biotransformation [6] | Bacterial Biotransformation [7] | Bacterial Biotransformation [8] | Bacterial Biotransformation [9] | Bacterial Biotransformation [10] | Bacterial Biotransformation [11] | Bacterial Biotransformation [12] | Bacterial Biotransformation [13] | Bacterial Biotransformation [14] | Bacterial Biotransformation [15] | Bacterial Biotransformation [16] | Bacterial Biotransformation [17] | Bacterial Biotransformation [18] | Bacterial Biotransformation [19] | Bacterial Biotransformation [20] | Compound | other results
Compound NOT metabolized | Compound NOT metabolized | Compound NOT metabolized | Compound NOT metabolized | Compound NOT metabolized | Compound NOT metabolized | Compound NOT metabolized | Compound NOT metabolized | Compound NOT metabolized | Compound NOT metabolized | Compound metabolized | Compound NOT metabolized | Compound NOT metabolized | Compound NOT metabolized | Compound NOT metabolized | Compound NOT metabolized | Compound NOT metabolized | Compound NOT metabolized | Compound NOT metabolized | Compound metabolized | C[C@]12C=CC(=O)C=C1CC[C@@H]1[C@@H]2C(=O)C[C@@]2(C)[C@H]1CC[C@]2(O)C(=O)CO [PREDNISONE] | Bacterial Biotransformation [21]: Compound metabolized; Bacterial Biotransformation [22]: Compound metabolized; Bacterial Biotransformation [23]: Compound metabolized; Bacterial Biotransformation [24]: Compound metabolized; Bacterial Biotransformation [25]: Compound metabolized; Bacterial Biotransformation [26]: Compound metabolized; Bacterial Biotransformation [27]: Compound metabolized; Bacterial Biotransformation [28]: Compound metabolized; Bacterial Biotransformation [29]: Compound metabolized; Bacterial Biotransformation [30]: Compound NOT metabolized
Compound NOT metabolized | Compound NOT metabolized | Compound NOT metabolized | Compound NOT metabolized | Compound metabolized | Compound NOT metabolized | Compound NOT metabolized | Compound NOT metabolized | Compound NOT metabolized | Compound NOT metabolized | Compound NOT metabolized | Compound NOT metabolized | Compound NOT metabolized | Compound metabolized | Compound metabolized | Compound NOT metabolized | Compound NOT metabolized | Compound NOT metabolized | Compound metabolized | Compound metabolized | COc1ccc([C@@H]2Sc3ccccc3N(CCN(C)C)C(=O)[C@@H]2OC(C)=O)cc1 [DILTIAZEM] | Bacterial Biotransformation [21]: Compound metabolized; Bacterial Biotransformation [22]: Compound metabolized; Bacterial Biotransformation [23]: Compound metabolized; Bacterial Biotransformation [24]: Compound NOT metabolized; Bacterial Biotransformation [25]: Compound NOT metabolized; Bacterial Biotransformation [26]: Compound metabolized; Bacterial Biotransformation [27]: Compound metabolized; Bacterial Biotransformation [28]: Compound metabolized; Bacterial Biotransformation [29]: Compound NOT metabolized; Bacterial Biotransformation [30]: Compound NOT metabolized
Compound NOT metabolized | Compound NOT metabolized | Compound NOT metabolized | Compound NOT metabolized | Compound NOT metabolized | Compound NOT metabolized | Compound NOT metabolized | Compound NOT metabolized | Compound NOT metabolized | Compound NOT metabolized | Compound metabolized | Compound NOT metabolized | Compound NOT metabolized | Compound NOT metabolized | Compound NOT metabolized | Compound NOT metabolized | Compound NOT metabolized | Compound NOT metabolized | Compound metabolized | Compound metabolized | C[C@]12CCC(=O)C=C1CC[C@@H]1[C@@H]2[C@@H](O)C[C@@]2(C)[C@H]1CC[C@]2(O)C(=O)CO [HYDROCORTISONE] | Bacterial Biotransformation [21]: Compound metabolized; Bacterial Biotransformation [22]: Compound metabolized; Bacterial Biotransformation [23]: Compound metabolized; Bacterial Biotransformation [24]: Compound metabolized; Bacterial Biotransformation [25]: Compound metabolized; Bacterial Biotransformation [26]: Compound metabolized; Bacterial Biotransformation [27]: Compound metabolized; Bacterial Biotransformation [28]: Compound metabolized; Bacterial Biotransformation [29]: Compound metabolized; Bacterial Biotransformation [30]: Compound NOT metabolized
